Entries after “also recorded” stand apart in the source; their conditions may differ.
Tests used:
[1] = tested on: isolated human atrial myocytes; assay: Patch-clamp recording of spontaneous Na-Ca exchange current (INCX) associated with calcium waves, membrane potential clamped at -80 mV; type: cell-based; conditions: for basal calcium wave frequency measured by patch clamp technique: cells from atrial fibrillation patients with elevated basal SR calcium release, n=7, both antagonists pooled (FIG. 3B right); for reversal of the specific effect of CGS 21680 on spontaneous SR calcium release: antagonist concentration not stated at this place
Method: (§1) Myocytes were isolated from human atrial tissue samples as previously described (cf. L. Hove-Madsen et al., “Atrial fibrillation is associated with increased spontaneous calcium release from the sarcoplasmic reticulum in human atrial myocytes”, Circulation 2004, vol. 110, pp. 1358-63). Briefly, the samples were rinsed, cut into small pieces in a calcium free solution containing 30 mM butanedione monoxime (BDM), and incubated at 35° C. in a Ca^2+ free solution containing 0.5 mg/ml collagenase (Worthington type 2, 318 u/mg) and 0.5 mg/ml proteinase (Sigma type XXIV, 11 u/mg solid). After 45 minutes, the tissue was removed from the enzyme solution and cells were disgregated in Ca^2+-free solution with a Pasteur pipette. The remaining tissue was digested for 3×15 minutes in a fresh calcium free solution containing 0.4 mg/ml collagenase. […] Only elongated cells with clear cross striations and without granulation were used for experiments.
The transient inward Na—Ca exchange current associated with calcium waves was recorded in the perforated patch configuration using a software controlled patch-clamp amplifier (EPC 10, HEKA, Germany). The pipette resistance was 1.5-4 MΩ. Experiments were carried out at room temperature and began when the access resistance was stable and had decreased to less than 5 times the pipette resistance. The extracellular solution contained (in mM): NaCl 127, tetraethyl ammonium (TEA) 5, HEPES 10, NaHCO3 4, NaH2PO4 0.33, glucose 10, pyruvic acid 5, CaCl2 2, MgCl2 1.8, (pH=7.4). The pipette solution contained (in mM): aspartic acid 109, CsCl 47, Mg2ATP 3, MgCl2 1, Na2phosphocreatine 5, Li2GTP 0.42, HEPES 10 and 250 μg/ml amphotericin B, (pH=7.2). The A2A receptor agonist […], the antagonists ZM 241385 and SCH 58261, and the protein kinase A inhibitor H-89 were all dissolved in DMSO and kept as 10 mM stock solutions. The caffeine releasable SR calcium content was measured by transiently exposing cells to 10 mM caffeine. The time integral of the resulting Na—Ca exchange current was converted to pmoles […] of calcium released from the SR assuming a stoichiometry of 3Na^+:1Ca^2+ for the Na—Ca exchanger.
Electrophysiological and confocal calcium imaging experiments were carried out without knowledge about the clinical data of the patients. The Ca^2+ sparks and Ca^2+ waves recorded in cells from the same patient were averaged. Unless otherwise stated, average values from each patient were used for statistical analysis and expressed as mean±S.E.M. Data sets were tested for normality. Student's t-test was used to assess significant differences when testing a specific effect. ANOVA was used for comparison of multiple effects and Student-Newman-Keuls post test was used to evaluate the significance of specific effects.

[2] = tested on: isolated human atrial myocytes; assay: Spontaneous SR calcium release (calcium sparks and waves), confocal calcium imaging of fluo-3 loaded cells; type: cell-based; conditions: for basal calcium wave frequency measured by confocal microscopy: 50 nM, cells from atrial fibrillation patients with elevated basal SR calcium release, n=6, both antagonists pooled (FIG. 3B left)
Method: as §1
Calcium sparks and calcium waves were detected in fluo-3 loaded cells using a laser-scanning confocal microscope (Leica TCS SP2 AOBS, Germany). […] Fluorescence emission was collected between 500 and 650 nm with the excitation at 488 nm attenuated to 1-5%. Calcium sparks and calcium waves were measured at resting conditions during 2×10.24 s, at a scan rate of 1 kHz. Calcium sparks were detected as an increase in the signal mass of a 3 μm section through the center of a calcium spark, without any detectable increase in an adjacent 3 μm section. An increase in the signal mass in two or more adjacent 3 μm sections were counted as calcium waves. The amplitude of each calcium spark and its half-life were determined from an exponential fit of the decaying phase of the calcium spark transient. The calcium spark frequency was determined for each cell and normalized to the scanned cell length.
Electrophysiological and confocal calcium imaging experiments were carried out without knowledge about the clinical data of the patients. The Ca^2+ sparks and Ca^2+ waves recorded in cells from the same patient were averaged. […]

Structure (SMILES): O=S(=O)(NCCNC/C=C/c1ccc(Br)cc1)c1cccc2cnccc12 [H-89]
- effect on the stimulatory effect of 200 nM CGS 21680 (wave frequency) ([1]; 10 μM H-89, myocytes from 5 patients with atrial fibrillation (FIG. 2E), p=0.002 CGS vs. CGS+H-89): abolished the stimulatory effect; also recorded: eliminated
- spontaneous calcium release / calcium wave frequency relative to baseline before CGS 21680 ([1]; 10 μM H-89 with 200 nM CGS 21680, p=0.05 vs. control (FIG. 2E)): reduced spontaneous calcium release to a significantly lower level than the baseline; also recorded: reduces the calcium wave frequency below baseline level

Structure (SMILES): Nc1nc(NCCc2ccc(O)cc2)nc2nc(-c3ccco3)nn12 [ZM 241385]
- basal calcium wave frequency measured by confocal microscopy [2]: significantly reduced the calcium wave frequency
- basal calcium wave frequency measured by patch clamp technique ([1]; 50 nM): significantly reduced the calcium wave frequency
- reversal of the stimulatory effect of 200 nM CGS 21680 on spontaneous INCX ([1]; antagonist 1 μM, -80 mV (FIG. 2C)): able to revert the stimulatory effect
- reversal of the specific effect of CGS 21680 on spontaneous SR calcium release [1]: reversed

Structure (SMILES): CCNC(=O)[C@H]1O[C@@H](n2cnc3c(N)nc(NCCc4ccc(CCC(=O)O)cc4)nc32)[C@H](O)[C@@H]1O [CGS 21680]
- number of calcium waves ([2]; myocytes from patients with atrial fibrillation, preincubation with 200 nM): increased the number of calcium waves
- number of spontaneous calcium waves measured as the Na-Ca exchange current (INCX) ([1]; 200 nM, -80 mV, atrial fibrillation patients (FIG. 2A, B, D)): reversibly increased the number of spontaneous calcium waves

Structure (SMILES): Nc1nc2c(cnn2CCc2ccccc2)c2nc(-c3ccco3)nn12 [SCH 58261]
- basal calcium wave frequency measured by confocal microscopy [2]: significantly reduced the calcium wave frequency
- basal calcium wave frequency measured by patch clamp technique ([1]; 50 nM): significantly reduced the calcium wave frequency
- spontaneous INCX frequency (basal) ([1]; 50 nM, samples of patients with atrial fibrillation, -80 mV (FIG. 3A)): reversible reduction
- reversal of the specific effect of CGS 21680 on spontaneous SR calcium release [1]: reversed

— US8012973B2, “Compounds for the treatment of auricular fibrillation” (Proyecto de Biomedicina Cima S.L., priority 2005, dated 2011)
